Experimental data taken from ChEMBL document CHEMBL3102707, “Synthesis and structure-activity relationship of 2-adamantylmethyl tetrazoles as potent and selective inhibitors of human 11β-hydroxysteroid dehydrogenase type 1 (11β-HSD1)” (Bioorg Med Chem Lett, 2014).

Assays:
[1] = Aqueous solubility of the compound; format: physicochemical; conditions: buffer
[2] = Drug level in mouse liver at 10 mg/kg, po after 3 hrs; format: ADME, organism-based; parameters: dose 10 mg/kg, route oral; conditions: read-out: Drug uptake
[3] = Plasma concentration in mouse at 10 mg/kg, po after 3 hrs; format: ADME, organism-based; parameters: dose 10 mg/kg, route oral
[4] = Drug level in mouse adipose tissue at 10 mg/kg, po after 3 hrs; format: ADME, organism-based; parameters: dose 10 mg/kg, route oral; conditions: read-out: Drug uptake

Row | solubility [1] | concentration at 3 h [2] [nM] | concentration at 3 h [3] [nM] | concentration at 3 h [4] [nM] | SMILES
1 | soluble | – | – | – | c1ccc(-c2ccc(C3(Cc4nnn[nH]4)C4CC5CC(C4)CC3C5)cc2)cc1 (configuration not stated)
2 | – | 23700 | 820 | < 75 | N#Cc1ccc(-c2ccc(C3(Cc4nnn[nH]4)C4CC5CC3CC(C4)C5O)cc2)cc1 (racemic)
3 | – | 13900 | 1560 | 160 | OC1C2CC3CC1CC(C2)C3(Cc1nnn[nH]1)c1ccc(-c2ccc(F)cc2)cc1 (single isomer, unassigned; enantiomer 1)
